Measurements as given in patent publication US20040063681A1, “Methods for using gold (III) complexes as anti-tumor and anti-HIV agents” (priority 2002, published 2004).

Columns and labels:
[1] = test system: plasmid DNA (pDR2); test: Restriction endonuclease (ApaI) fragmentation assay
Source text: Binding of the metalloporphyrin onto a duplex DNA such as plasmid DNA (pDR2) is expected to occupy the binding site of the restriction enzyme ApaI, thereby inhibiting the enzymatic DNA digestion. See Ikeda et al., J. Am. Chem. Soc. 104:296-297 (1982).
After ApaI digestion, (lane B), three bands corresponding to 6.6, 4.4 and 2.0 kbp were observed.

[2] = test system: Human Oral Epidermoid Carcinoma (multi-drug resistance, KB-V-1); test: MTT cytotoxicity, KB-V-1; format: cell-based; conditions: MTT, growth inhibition, multi-drug resistant
Source text: Human promyelocytic leukemia (HL-60), human hepatocellular carcinoma (HepG2), Human cervix epitheloid carcinoma cells (HeLa) and human oral epidermoid carcinoma cells (KB-3-1), were obtained from American Type Culture Collection (ATCC) (Rockville, Md.). The multi-drug-resistant variant KB-V1 cell line was obtained by stepwise selections for vinblastine resistance as described by Shen et al., J. Biol. Chem. 261:7762-7770 (1986)], and was generously provided by Dr Michael Gottesman (NIH, Bethesda, Md.). Human nasopharyngeal carcinoma cells (SUNE1 and its cisplatin resistance variant, CNE1) were derived from poorly differentiated NPC in Chinese patients as described by Gu et al., Chin. J. Cancer 2:270-272 (1983), and were generously provided by Dr S. W. Tsao (The University of Hong Kong, Hong Kong, PRC). Cell culture flasks and 96 well microtitre plates were from Nalge Nunc hit. Culture medium, other medium constituents and phosphate buffered saline (PBS) were obtained from Gibco BRL (Rockville, Md.). Cell Proliferation Kit I (MTT) was purchased from Roche (Mannheim, Germany).
The anti-cancer activities of the gold(III) porphyrin complexes were evaluated toward some established human cancer cell lines: promyelocytic leukemia (HL-60), hepatocellular carcinoma (HepG2), cervix epitheloid carcinoma (HeLa), epidermoid carcinoma (KB-3-1) and its multi-drug resistant variant (KB-V1), nasopharyngeal carcinoma (SUNE1) and its cisplatin-resistant variant (CNE1).

Compound: C1=Cc2nc1c(-c1ccccc1)c1ccc([n-]1)c(-c1ccccc1)c1nc(c(-c3ccccc3)c3ccc([n-]3)c2-c2ccccc2)C=C1.[Au+3].[Cl-] [Complex 1a]
- effect on ApaI digestion of pDR2 ([1]; Complex:DNA = 0.1:1 (lane C)): partial DNA digestion was observed
- effect on ApaI digestion of pDR2 ([1]; Complex:DNA bp = 1:1 (lane D)): inhibition of the DNA digestion was observed
- IC50 [2]: 120 nM
